# Results reported in paper PMC3446905, “Puerarin Suppresses Proliferation of Endometriotic Stromal Cells Partly via the MAPK Signaling Pathway Induced by 17ß-estradiol-BSA” (PLoS ONE, 2012).
# Test system: T1, estrogen receptors (ERs; subtype not resolved)
# T1 construct: endogenous receptors in whole endometriotic stromal cells (ESCs)
# Test: whole-cell competitive radioligand binding against [3H]-E2
# Format: cell-based, Homo sapiens
# Experimental: whole-cell competitive radioligand binding against [3H]-E2 on estrogen receptors (ERs; subtype not resolved) | puerarin also competed against the specific binding of [^3H]-E2 to ERs, and the IC50 of puerarin was determined
smiles,measurement,value
O=c1c(-c2ccc(O)cc2)coc2c([C@@H]3O[C@H](CO)[C@@H](O)[C@H](O)[C@H]3O)c(O)ccc12 [puerarin],IC50,870 nM
